Literature values in US20170158776A1, “TREATMENT OF LUNG CANCER USING A COMBINATION OF AN ANTI-PD-1 ANTIBODY AND ANOTHER ANTI-CANCER AGENT” (Bristol-Myers Squibb Company, priority 2014, published 2017).

Tested on: EGFR MT NSCLC
Conditions: first-line treatment of EGFR MT NSCLC; cited from earlier work

C#Cc1cccc(Nc2ncnc3cc(OCCOC)c(OCCOC)cc23)c1 [erlotinib]
median progression-free survival (PFS): 10.4 months
